# Where a name gives a salt, the structure may show the parent alone. Read-outs that look alike come from different tables or passages of the source.
# Legend:
# [1] = Rat blood-brain barrier evaluation; format: in vivo; settings: rat, oral, SD rats, intragastric 10 mg/kg
# Procedure: (1) Animal Administration and Sampling Method:
# The study compound A1, the compound A41 and PXS-4728 were dissolved in normal saline to prepare solutions. The prepared solutions were separately administered by intragastric administration to SD rats at a dose of 10 mg/kg. […] At each time point, samples were collected from three SD rats.
# On the day of the study, the animals were fixed to collect 0.15 mL of blood from the jugular vein at each set time point, and the whole blood samples were put into anticoagulation tubes containing EDTA-K2. After blood sampling was completed, heart perfusion was immediately performed for the animals, and following the heart perfusion, brain tissue samples were collected.
# After the whole blood samples were centrifuged under the condition of 1,524 g for 10 min, top plasma samples were collected into sample tubes. The tissue samples were weighed, added with 20% of aqueous methanol solution at a weight-to-volume ratio of 1:5 (tissue:homogenate) and homogenized. The biological samples were stored at −40° C. to −20° C. for analysis.
# (4) Sample Analysis Method:
# (§1) Plasma sample: The samples to be tested were taken out of the refrigerator, naturally thawed at room temperature and then swirled for 5 min, and 20 μL of plasma sample was accurately pipetted into 1.5 mL centrifuge tubes. 100 μL of internal standard working solution (solution of 5 ng/mL verapamil and 50 ng/mL glibenclamide in acetonitrile) was added, and uniform mixing was performed. After 1 min of swirling, centrifugation was performed at 13,000 rpm for 8 min. 40 μL of supernate was accurately pipetted into a 96-well plate added with 160 μL water/well in advance. Uniform mixing was performed by swirling for 10 min, followed by LC-MS/MS assay.
# as §1, with “Brain tissue” for “Plasma”, “50” for “20”, “250” for “100”, “30” for “40”, “150” for “160”
# (5) Data Processing Method:
# Analyst 1.6.2 from AB Sciex was used to output concentration results of tested compounds. Microsoft Excel was used to calculate parameters such as mean value, standard deviation and variation coefficient (excluding those outputted directly by Analyst 1.6.2).
# rhVAP-1 = biological target: T1, rhVAP-1 (Homo sapiens, UniProt Q16853); assay: Inhibitory activity against rhVAP-1 enzyme (Biological Example 2); format: biochemical; settings: Table 2; benzylamine substrate, Amplex Red/HRP
# T1 construct: purchased PeproTech
# T1 sequence (Q16853 27-763 limits assumed): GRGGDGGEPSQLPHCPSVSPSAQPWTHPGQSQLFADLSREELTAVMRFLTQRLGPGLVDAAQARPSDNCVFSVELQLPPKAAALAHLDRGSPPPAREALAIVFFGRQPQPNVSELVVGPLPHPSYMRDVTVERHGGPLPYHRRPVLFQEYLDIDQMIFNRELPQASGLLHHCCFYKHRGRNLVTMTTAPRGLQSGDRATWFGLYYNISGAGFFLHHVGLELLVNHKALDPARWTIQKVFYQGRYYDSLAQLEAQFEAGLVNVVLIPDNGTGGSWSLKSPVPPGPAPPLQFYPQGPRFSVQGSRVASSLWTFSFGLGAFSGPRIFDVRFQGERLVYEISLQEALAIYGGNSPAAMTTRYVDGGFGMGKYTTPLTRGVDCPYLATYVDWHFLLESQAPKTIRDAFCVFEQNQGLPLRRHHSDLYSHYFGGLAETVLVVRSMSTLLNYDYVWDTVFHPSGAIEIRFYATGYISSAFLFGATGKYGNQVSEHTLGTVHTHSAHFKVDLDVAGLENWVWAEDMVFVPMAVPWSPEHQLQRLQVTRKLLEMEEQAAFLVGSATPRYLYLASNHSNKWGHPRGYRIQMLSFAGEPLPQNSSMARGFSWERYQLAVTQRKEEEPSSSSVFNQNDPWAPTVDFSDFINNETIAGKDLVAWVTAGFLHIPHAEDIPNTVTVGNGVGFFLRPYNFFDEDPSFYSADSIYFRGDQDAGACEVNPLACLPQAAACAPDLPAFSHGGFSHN
# Procedure: 1. Inhibitory Activity of Compounds Against rhVAP-1 Enzyme
# (§2) (1) Instrument, Consumable and Reagent
# Microplate reader (Perkin Elmer, Nivo 5S), black unclear-bottom 96-well plate (Corning) and rhVAP-1 (PeproTech)
# (§3) (2) Preparation of Concentration Gradient Compound Solutions
# (§4) An appropriate amount of the compound to be tested was taken, dissolved in DMSO to 10 mM and then stored. Before the study, an appropriate amount of mother liquor of the 10 mM compound to be tested was taken and gradiently diluted 3-fold with DMSO, 10 concentration gradients in total. Each concentration gradient was then diluted 100-fold with 0.1 M of PBS.
# (§5) (3) Preparation of Enzyme Solutions
# An appropriate amount of protein diluent was added into rhVAP-1 powder, obtaining 1 mg/mL of mother liquor for storage. Before the study, PBS was used to carry out dilution to obtain enzyme solutions of 4× concentrations.
# (§6) (4) Preparation of Substrate Mixtures of 2× Concentrations
# (§7) An appropriate amount of benzylamine was weighed and dissolved with PBS to obtain 200 mM of benzylamine solution. The benzylamine solution was added with 2 mM of Amplex Red mother liquor and 500 U/mL of HRP mother liquor and diluted with PBS to obtain substrate mixtures of 2× concentrations.
# (§8) 10 μL compound solutions of different concentrations, 25 μL rhVAP-1 enzyme solutions of 4× concentrations and 15 μL of PBS were first added into a 96-well plate, shaken to be mixed uniformly and then incubated at 37° C. for 30 min. 50 μL substrate mixtures of 2× concentrations were then added into each well, and the microplate reader was immediately used to perform detection with 580 nm (20 nm) exciting light and 620 nm (10 nm) emission light for 5 min each time, 30 min in total. The inhibition rate was calculated according to the following formula: V (RFU/min)=(Ft (RFU)−F0 (RFU))/(time(min)) Inhibition rate (%)=100%−Vcmpd (RFU/min)/Vmax (RFU/min)×100%
# (§9) V: fluorescence change rate; Ft: fluorescence reading at time point t; F0: initial fluorescence reading; Time: duration t; Vcmpd: fluorescence change rate of tested compound; Vmax: Max hole fluorescence change rate.
# (§10) (6) Fitting of Dose-Response Curve
# (§11) With the log value of concentration as the X axis and the percent inhibition rate as the Y axis, the log (inhibitor) vs. response-variable slope of analysis software GraphPad Prism 5 was used to fit a dose-response curve, thus obtaining the IC50 value of activity of each compound against the enzyme.
# rhAOC1 = biological target: T2, rhAOC1 (Homo sapiens, UniProt P19801); assay: Selectivity against rhAOC1 enzyme (Biological Example 2); format: biochemical; settings: Table 2; histamine substrate, Amplex Red/HRP
# T2 construct: purchased R&D
# T2 sequence (P19801 20-751): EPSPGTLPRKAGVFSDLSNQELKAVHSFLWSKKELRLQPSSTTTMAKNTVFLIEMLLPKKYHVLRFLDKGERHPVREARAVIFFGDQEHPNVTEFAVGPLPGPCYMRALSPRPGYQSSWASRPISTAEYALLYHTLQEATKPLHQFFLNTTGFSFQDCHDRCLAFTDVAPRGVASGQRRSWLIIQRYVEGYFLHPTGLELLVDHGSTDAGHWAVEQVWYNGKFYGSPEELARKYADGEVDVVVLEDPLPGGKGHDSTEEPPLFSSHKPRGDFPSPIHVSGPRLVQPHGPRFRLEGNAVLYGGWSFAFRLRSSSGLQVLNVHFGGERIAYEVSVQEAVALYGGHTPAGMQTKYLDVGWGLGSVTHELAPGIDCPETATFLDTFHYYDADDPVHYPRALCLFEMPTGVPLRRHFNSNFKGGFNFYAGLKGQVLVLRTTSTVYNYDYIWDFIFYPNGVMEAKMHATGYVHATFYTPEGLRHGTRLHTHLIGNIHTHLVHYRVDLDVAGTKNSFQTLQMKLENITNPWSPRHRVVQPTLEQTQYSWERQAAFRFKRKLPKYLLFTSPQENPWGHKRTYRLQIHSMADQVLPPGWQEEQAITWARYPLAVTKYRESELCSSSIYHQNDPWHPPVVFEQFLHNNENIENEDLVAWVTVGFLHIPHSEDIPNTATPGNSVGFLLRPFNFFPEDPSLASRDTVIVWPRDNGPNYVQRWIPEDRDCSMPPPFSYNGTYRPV
# Procedure: 2. Selectivity of Compounds Against rhAOC1 Enzyme
# as §2
# Microplate reader (Perkin Elmer, Nivo 5S), black unclear-bottom 96-well plate (Corning) and rhAOC1 (R&D)
# as §3
# as §4, with “10-fold” for “100-fold”
# as §5
# An appropriate amount of rhAOC1 mother liquor with a concentration of 0.441 mg/mL was taken and diluted with an appropriate amount of 50 mM HEPES buffer solution to obtain enzyme solutions of 4× concentrations.
# as §6
# as §7, with “histamine” for “benzylamine”, “50 mM of HEPES buffer solution” for “PBS”, “20” for “200”
# as §8, with “rhAOC1” for “rhVAP-1”, “50 mM HEPES buffer solution” for “PBS”, “detect fluorescence intensity of each well” for “perform detection”
# as §9, §10, §11
smiles,measurement,setting,value
"CC(C)(C)NC(=O)c1ccc(OC/C(=C/F)CN)cc1 [PXS-4728, reference compound]",concentration at 0.167 h,"[1]; brain, 0.167 h, read-out: Average Brain tissue concentration (N=3)",337 ng/g
same,concentration at 1 h,"[1]; brain, 1 h, read-out: Average Brain tissue concentration (N=3)",1400 ng/g
same,concentration at 6 h,"[1]; brain, 6 h, read-out: Average Brain tissue concentration (N=3)",311 ng/g
same,Kp at 0.167 h,"[1]; brain/plasma, 0.167 h, read-out: Mean brain tissue/plasma concentration ratio",0.89
same,Kp at 1 h,"[1]; brain/plasma, 1 h, read-out: Mean brain tissue/plasma concentration ratio",1.34
same,Kp at 6 h,"[1]; brain/plasma, 6 h, read-out: Mean brain tissue/plasma concentration ratio",1.89
same,concentration at 0.167 h,"[1]; plasma, 0.167 h, read-out: Average Plasma concentration (N=3)",0.373 µg/mL
same,concentration at 1 h,"[1]; plasma, 1 h, read-out: Average Plasma concentration (N=3)",1.04 µg/mL
same,concentration at 6 h,"[1]; plasma, 6 h, read-out: Average Plasma concentration (N=3)",0.175 µg/mL
"CC(C)N1CCc2nn(C/C(=C/F)CN)cc2C1=O [Compound A27 hydrochloride, (E)-2-(2-(aminomethyl)-3-fluoroallyl)-5-isopropyl-2,5,6,7-tetrahydro-4H-pyrazolo[4,3-c]pyridin-4-one]",IC50,rhVAP-1,0.112 µM
same,IC50,rhAOC1,9.65 µM
"CN(C)C(=O)c1cnn(C/C(=C/F)CN)c1 [Compound B29, (E)-1-(2-(aminomethyl)-3-fluoroallyl)-N,N-dimethyl-1H-pyrazole-4-carboxamide]",IC50,rhVAP-1,0.07 µM
same,IC50,rhAOC1,10.8 µM
"CC(C)(C)NC(=O)c1cnn(C/C(=C/F)CN)c1 [Compound B3, (E)-1-(2-(aminomethyl)-3-fluoroallyl)-N-(tert-butyl)-1H-pyrazole-4-carboxamide]",IC50,rhVAP-1,0.089 µM
same,IC50,rhAOC1,12.5 µM

# Source: patent US12371432B2, “Haloallylamine compounds and application thereof” (TransThera Sciences (Nanjing), Inc., priority 2019, dated 2025)
